Data taken from article PMC4060151 (Chemistry & biology, 2014).

Key:
[1] = test system: stationary M. tuberculosis mc^26020; test: Time-dependent killing, stationary cells; assay type: cell-based; settings: 10 ×MIC; average of three biological replicates (Fig. 3B)
ClpC1 = settings: cited from earlier work
cell wall biosynthesis = settings: ref Iwatsuki et al., 2006; cited from earlier work

CO[C@H]1/C=C/O[C@@]2(C)Oc3c(C)c(O)c4c(O)c(c(/C=N/N5CCN(C)CC5)c(O)c4c3C2=O)NC(=O)/C(C)=C\C=C\[C@H](C)[C@H](O)[C@@H](C)[C@@H](O)[C@@H](C)[C@H](OC(C)=O)[C@@H]1C [rifampicin]
killing of stationary phase cells [1]: characteristic biphasic killing (Fig. 3B) and a significant number of persister cells survive exposure

cyclomarin A
binding to ClpC1 (ClpC1): binds to ClpC1 | effect on proteolysis (ClpC1): proposed to cause excessive proteolysis

Lariatin A
mechanism of action (cell wall biosynthesis): inhibits cell wall biosynthesis
